Data on one compound can be found in US20250051686A1, “SURFACTANTS FOR CLEANING PRODUCTS” (AdvanSix Resins & Chemicals LLC, priority 2023, published 2025).

Experiment in all cases: Antimicrobial minimum inhibitory concentration (MIC), serial dilution
One assay has as its system P. aeruginosa (9027). In kind it is cell-based, Pseudomonas aeruginosa. The following applies: 24 hours; serial dilution 1.7 fold; 400 ppm max. From the text:
(§1) The antimicrobial properties of surfactants can be examined using known methods and standard protocols, and various types of microorganisms as treatment targets. As a general matter, standard protocols can be developed to assess antimicrobial minimum inhibitory concentration (MIC) using serial dilution method, giving concentration-dependent microorganism growth inhibition measurements against gram positive (e.g., Streptococcus mutans, which is anaerobic, and Staphylococcus aureus, which is usually aerobic but can grow also anaerobically), gram negative (e.g., Escherichia coli, which is anaerobic, or Pseudomonas aeruginosa, which is aerobic). Bacteria are propagated overnight in a suitable growth medium, e.g., a Tryptic Soy Broth. Prior to testing, the concentrations of the test organisms are established using a spectrophotometer that can measure optical density. Those bacterial samples are then diluted to about 1E3 to 1E4 CFU/mL. […] Test measurements are conducted on replicate 96-well plates, and reported as the rounded whole number average of the determined MIC. […] Measurement variability is then reported based on the determined average in the form of MIC+/−.

Another assay concerns E. coli (8739). In kind it is cell-based, Escherichia coli. To be noted: 24 hours; serial dilution 1.7 fold; 400 ppm max (ADBAC control 20 ppm max).
Excerpt: as §1

In a further assay the test system is S. aureus (6538). In kind it is cell-based, Staphylococcus aureus. To be noted: 24 hours; serial dilution 1.7 fold; 400 ppm max (ADBAC control 20 ppm max).
Excerpt: as §1

The next assay relates to S. mutans (25715). The class given is cell-based, Streptococcus mutans. The following applies: 24 hours; serial dilution 1.7 fold; 400 ppm max (ADBAC control 20 ppm max).
Excerpt: as §1

`CCCCCCCCCCCCCC[N+](C)(C)Cc1ccccc1.[Cl-]` [ADBAC control]: the “MIC Result” value is given as 48 +/− 20 ppm in the assay on P. aeruginosa (9027), 16 +/− 7 ppm in the assay with E. coli (8739), 7 +/− 3 ppm with S. aureus (6538) and 7 +/− 3 ppm in the assay on S. mutans (25715).
